Assay [1] addresses T1, LYCHOS (GPR155) (Homo sapiens, UniProt Q7Z3F1).
T1 sequence (Q7Z3F1 1-870): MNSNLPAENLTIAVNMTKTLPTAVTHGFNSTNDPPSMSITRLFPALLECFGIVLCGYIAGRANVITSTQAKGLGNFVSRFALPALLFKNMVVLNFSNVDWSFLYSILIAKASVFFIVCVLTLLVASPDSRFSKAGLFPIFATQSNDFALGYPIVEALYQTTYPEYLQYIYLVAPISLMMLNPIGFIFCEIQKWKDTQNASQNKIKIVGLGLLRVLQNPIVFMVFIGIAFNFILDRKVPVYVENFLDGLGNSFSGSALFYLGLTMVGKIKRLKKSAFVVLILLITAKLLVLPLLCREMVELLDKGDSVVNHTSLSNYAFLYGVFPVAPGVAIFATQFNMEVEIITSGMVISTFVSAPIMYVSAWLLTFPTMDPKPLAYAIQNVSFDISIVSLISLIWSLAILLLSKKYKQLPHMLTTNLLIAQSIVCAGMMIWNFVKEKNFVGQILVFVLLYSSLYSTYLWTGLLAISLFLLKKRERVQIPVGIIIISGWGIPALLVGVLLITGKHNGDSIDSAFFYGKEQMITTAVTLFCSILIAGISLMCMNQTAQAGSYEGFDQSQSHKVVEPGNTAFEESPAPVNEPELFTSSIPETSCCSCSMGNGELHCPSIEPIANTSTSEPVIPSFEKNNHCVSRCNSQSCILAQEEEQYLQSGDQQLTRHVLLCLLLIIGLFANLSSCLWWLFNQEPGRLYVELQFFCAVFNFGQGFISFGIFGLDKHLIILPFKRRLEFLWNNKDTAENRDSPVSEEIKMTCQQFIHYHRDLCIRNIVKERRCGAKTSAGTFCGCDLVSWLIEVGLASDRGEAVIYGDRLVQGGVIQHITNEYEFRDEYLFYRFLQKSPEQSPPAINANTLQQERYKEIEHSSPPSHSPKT
The assay is described as follows: [3H]-cholesterol saturation binding, scintillation counting.

For assay [2], the target named is LYCHOS-GATOR1 complex (Homo sapiens, UniProt Q7Z3F1). The assay is described as follows: FLAG co-immunoprecipitation of GATOR1 with LYCHOS from cholesterol-refed cells. It is filed as cell-based.
Sequence of LYCHOS-GATOR1 complex (O75140 whole entry partner, one chain of several): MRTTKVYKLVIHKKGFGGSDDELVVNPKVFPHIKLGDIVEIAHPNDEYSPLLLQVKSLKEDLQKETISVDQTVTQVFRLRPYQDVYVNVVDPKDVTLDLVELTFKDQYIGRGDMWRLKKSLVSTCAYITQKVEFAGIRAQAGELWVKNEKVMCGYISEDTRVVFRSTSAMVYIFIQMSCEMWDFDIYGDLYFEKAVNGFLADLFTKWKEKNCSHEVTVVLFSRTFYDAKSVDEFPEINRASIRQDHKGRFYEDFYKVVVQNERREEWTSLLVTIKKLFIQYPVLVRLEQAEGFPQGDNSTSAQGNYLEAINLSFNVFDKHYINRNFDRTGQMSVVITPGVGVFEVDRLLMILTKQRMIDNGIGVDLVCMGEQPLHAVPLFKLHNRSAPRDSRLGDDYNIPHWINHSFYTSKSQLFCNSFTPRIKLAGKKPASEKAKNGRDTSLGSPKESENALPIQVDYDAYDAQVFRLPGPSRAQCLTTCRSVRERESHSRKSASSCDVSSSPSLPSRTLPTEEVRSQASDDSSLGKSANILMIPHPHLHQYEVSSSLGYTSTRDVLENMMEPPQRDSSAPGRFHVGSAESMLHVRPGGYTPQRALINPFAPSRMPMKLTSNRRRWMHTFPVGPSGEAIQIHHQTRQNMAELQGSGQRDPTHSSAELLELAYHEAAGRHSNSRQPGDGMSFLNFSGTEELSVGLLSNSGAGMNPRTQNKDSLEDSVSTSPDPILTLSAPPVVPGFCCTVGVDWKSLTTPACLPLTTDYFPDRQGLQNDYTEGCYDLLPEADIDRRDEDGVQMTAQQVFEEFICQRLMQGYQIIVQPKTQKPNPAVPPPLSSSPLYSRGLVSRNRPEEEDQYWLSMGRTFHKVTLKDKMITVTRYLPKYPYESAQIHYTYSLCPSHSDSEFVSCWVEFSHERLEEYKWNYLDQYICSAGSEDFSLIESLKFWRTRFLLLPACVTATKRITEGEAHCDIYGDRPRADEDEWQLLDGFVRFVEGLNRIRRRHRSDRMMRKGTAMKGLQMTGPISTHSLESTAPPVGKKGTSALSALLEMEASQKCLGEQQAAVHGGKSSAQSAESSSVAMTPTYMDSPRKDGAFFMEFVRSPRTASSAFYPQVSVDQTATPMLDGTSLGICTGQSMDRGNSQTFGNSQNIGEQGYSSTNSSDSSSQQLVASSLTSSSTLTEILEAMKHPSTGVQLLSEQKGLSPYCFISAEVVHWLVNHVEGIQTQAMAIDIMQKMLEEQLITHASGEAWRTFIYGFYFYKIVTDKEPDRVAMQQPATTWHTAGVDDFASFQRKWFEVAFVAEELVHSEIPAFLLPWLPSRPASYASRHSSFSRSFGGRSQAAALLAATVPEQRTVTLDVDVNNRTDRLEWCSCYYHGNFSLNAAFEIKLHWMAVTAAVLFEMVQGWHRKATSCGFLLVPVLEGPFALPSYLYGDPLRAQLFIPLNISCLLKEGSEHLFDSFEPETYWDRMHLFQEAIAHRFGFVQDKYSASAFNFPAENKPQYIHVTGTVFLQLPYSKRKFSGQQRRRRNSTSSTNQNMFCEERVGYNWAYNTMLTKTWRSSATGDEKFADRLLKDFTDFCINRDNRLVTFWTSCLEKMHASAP
Sequence of LYCHOS-GATOR1 complex (Q8WTW4 whole entry partner, one chain of several): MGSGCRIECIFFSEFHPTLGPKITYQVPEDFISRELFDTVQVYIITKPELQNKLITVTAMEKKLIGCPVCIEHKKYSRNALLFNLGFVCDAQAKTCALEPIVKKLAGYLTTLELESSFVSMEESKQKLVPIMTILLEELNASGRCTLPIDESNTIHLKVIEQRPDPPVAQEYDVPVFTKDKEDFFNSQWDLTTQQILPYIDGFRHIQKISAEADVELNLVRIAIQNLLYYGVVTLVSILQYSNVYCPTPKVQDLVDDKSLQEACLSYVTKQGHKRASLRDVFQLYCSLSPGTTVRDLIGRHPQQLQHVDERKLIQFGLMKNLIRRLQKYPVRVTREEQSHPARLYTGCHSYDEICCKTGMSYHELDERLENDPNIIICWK
Sequence of LYCHOS-GATOR1 complex (Q12980 whole entry partner, one chain of several): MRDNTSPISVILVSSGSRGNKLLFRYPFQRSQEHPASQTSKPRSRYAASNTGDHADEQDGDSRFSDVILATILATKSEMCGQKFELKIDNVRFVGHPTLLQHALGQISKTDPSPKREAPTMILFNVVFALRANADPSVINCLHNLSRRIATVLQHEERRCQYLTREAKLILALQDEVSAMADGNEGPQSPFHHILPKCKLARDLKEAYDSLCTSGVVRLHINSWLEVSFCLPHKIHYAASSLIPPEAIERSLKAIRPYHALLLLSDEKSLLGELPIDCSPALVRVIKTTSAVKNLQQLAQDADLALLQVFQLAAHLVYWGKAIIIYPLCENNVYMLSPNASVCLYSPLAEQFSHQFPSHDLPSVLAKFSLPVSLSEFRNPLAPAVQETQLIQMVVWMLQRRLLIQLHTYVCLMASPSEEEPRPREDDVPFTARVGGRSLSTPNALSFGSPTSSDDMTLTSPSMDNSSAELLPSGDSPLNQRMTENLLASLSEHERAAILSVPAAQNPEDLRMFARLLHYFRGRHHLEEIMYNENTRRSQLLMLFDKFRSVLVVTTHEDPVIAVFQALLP

The Kd is the free concentration of one partner at which half of the binding sites on the other are occupied at equilibrium, for simple one-to-one binding. Usually EC50 stands for the concentration at which the effect is half-maximal. Higher therefore signals weaker potency. On to `CC(C)CCC[C@@H](C)[C@H]1CC[C@H]2[C@@H]3CC=C4C[C@@H](O)CC[C@]4(C)[C@H]3CC[C@]12C` [cholesterol], for which the Kd in assay [1] was in the range of 0.1 to 0.2 µM. The compound also registered an EC50 in assay [2] of 31.5 µM.
